From patent US20010039026A1, “Assay method” (priority 2000, published 2001)
Read-outs that look alike come from different tables or passages of the source.

Assays:
[1] = system: primary HIV isolates; conditions: cited from earlier work
[2] = system: env-mediated cell-cell fusion; conditions: cited from earlier work
[3] = system: primary, nonsyncytium-inducing (NSI) HIV-1 strains; conditions: primary NSI HIV-1 strains; cited from earlier work
[4] = molecular target: T1, CCCKR5 (Homo sapiens, UniProt P51681); conditions: transfected CHO-K1 cells; cited from earlier work
T1 construct: expressed in transfected cells; host or cells: CHO-K1 (stably transfected)

[5] = system: CXCR4 dependent primary and lab-adapted HIV viruses; conditions: cited from earlier work
[6] = system: CCR5-tropic strains; conditions: cited from earlier work
[7] = molecular target: T2, CCR5 (Homo sapiens, UniProt P51681); experiment: Dissociation constant of the CCR5/gp120 interaction, applicant's work with recombinant proteins; format: binding
T2 construct: antagonist of CCR5 function in monocytes; endogenous in cells; host or cells: monocytes

[8] = molecular target: T2, CCR5; conditions: described by others in model systems; read-out: dissociation constant (Kd) of the interaction of CCR5 with gp120; cited from earlier work

Molecule | suppression of replication of primary HIV isolates [1] | block of env-mediated cell-cell fusion [2] | inhibition of infection of CD4(+) cells at the virus entry stage [3] | agonist activity at CCCKR5 [4] | further results
RANTES: protein which is regulated upon activation and is normal T-cell expressed and secreted | suppress replication | block env-mediated cell-cell fusion | inhibit infection | active at physiologic concentrations | –
c1cc(CN2CCCNCCNCCCNCC2)ccc1CN1CCCNCCNCCCNCC1 [AMD3100] | – | – | – | – | inhibition of infection of susceptible cultures [5]: inhibit infection
MIP-1-α: macrophage inflammatory protein, β-chemokine ligand of CCR5 | suppress replication | block env-mediated cell-cell fusion | inhibit infection | most potent agonist | –
Cc1ccc(-c2ccc3c(c2)C=C(C(=O)Nc2ccc(C[N+](C)(C)C4CCOCC4)cc2)CCC3)cc1.[Cl-] [TAK 779] | – | – | – | – | block of entry of CCR5-tropic strains [6]: blocks entry
gp120: envelope protein of HIV that is required for viral entry into the target cells | – | – | – | – | Kd [7]: 100 to 1000 nM; Kd [8]: ~1 nM
SDF-1: chemokine shown to suppress replication of primary HIV isolates | suppress replication | – | – | – | –
